pIC50: −log10 of the molar value.

One test deals with T1, ER-α in MCF-7 cells (Homo sapiens, UniProt P03372).
T1 sequence (P03372 1-595): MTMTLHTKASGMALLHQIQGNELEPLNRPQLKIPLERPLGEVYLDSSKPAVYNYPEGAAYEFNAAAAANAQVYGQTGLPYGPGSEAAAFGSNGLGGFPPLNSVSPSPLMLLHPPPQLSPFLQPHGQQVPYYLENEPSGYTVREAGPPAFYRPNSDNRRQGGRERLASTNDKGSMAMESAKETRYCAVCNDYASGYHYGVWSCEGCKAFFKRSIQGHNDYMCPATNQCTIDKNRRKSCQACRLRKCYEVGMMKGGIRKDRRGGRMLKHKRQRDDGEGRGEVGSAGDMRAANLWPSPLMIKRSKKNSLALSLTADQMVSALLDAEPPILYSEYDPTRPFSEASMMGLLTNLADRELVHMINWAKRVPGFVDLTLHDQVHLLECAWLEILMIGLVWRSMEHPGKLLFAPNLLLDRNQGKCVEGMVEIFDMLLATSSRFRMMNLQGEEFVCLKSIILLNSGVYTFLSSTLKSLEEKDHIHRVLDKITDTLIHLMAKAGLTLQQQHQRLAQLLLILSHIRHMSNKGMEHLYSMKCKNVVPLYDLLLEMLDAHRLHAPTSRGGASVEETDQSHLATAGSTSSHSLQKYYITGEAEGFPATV
In words: Breast cancer cell ER-α in cell western assay (SP1). The arrangement: endogenous in cells; host or cells: MCF-7. It counts as cell-based. Conditions: 4 or 24 hr post compound addition; for Emax: MCF7, SP1 antibody, read-out: ER-α In Cell Western Assay (SP1) Max Response; for DC50: SP1 antibody, read-out: ER-α In Cell Western Assay (SP1) IC50. An outline of the steps:
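ER-α protein levels were measured in MCF-7 cells after 4 or 24 hr compound exposure (final 0.3–0.000003 μM) in RPMI containing 10% charcoal-stripped FBS.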

In another test the test system is MCF-7 cells. In words: Breast cancer cell viability assay (CellTiter-Glo, 5 days). It counts as cell-based. Conditions: 5 days' compound exposure; for pIC50: Homo sapiens, MCF7, 120 h. The method, boiled down: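 MCF-7 cells, 320 per well in RPMI with 10% FBS and 20 mM HEPES, adhered overnight, then exposed 5 days to an eleven-point semilog dilution (final 0.3-0.000003 μM). CellTiter-Glo luminescence read; % viability = (sample − cell-free background)/(untreated − background) × 100.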

In the case of `CC/C(=C(/c1ccc(/C=C/C(=O)O)cc1)c1ccc2[nH]ncc2c1F)c1cccc(OC2CCCCC2)c1` [Compound 345, (E)-3-(4-((E)-2-(3-(Cyclohexyloxy)phenyl)-1-(4-fluoro-1H-indazol-5-yl)but-1-en-1-yl)phenyl)acrylic acid], at ER-α in MCF-7 cells, the Emax is ≥ 40% and the DC50 was ≤ 100 nM. For the same molecule, in the test with MCF-7 cells, the “MCF7 Viability Assay Max Response” value was “++ (++ = a single % value ≧ 40%)” and the pIC50 was ≥ 7.00.
On to `CC/C(=C(/c1ccc(/C=C/C(=O)O)cc1)c1ccc2[nH]ncc2c1)c1cccc(OCC(=O)O)c1` [Compound 347, (E)-3-(4-((E)-2-(3-(Carboxymethoxy)phenyl)-1-(1H-indazol-5-yl)but-1-en-1-yl)phenyl)acrylic acid], for which, on ER-α in MCF-7 cells, the Emax is < 40% and the DC50 was > 100 nM. Besides, in the test on MCF-7 cells, the “MCF7 Viability Assay Max Response” value is on record as “+ (+ = a single % value < 40%)” and the negative logarithm of the IC50 (pIC50) was < 7.00.
The like results for `CC/C(=C(/c1ccc(/C=C/C(=O)O)cc1)c1ccc2[nH]ncc2c1)c1ccc(OCC(=O)O)cc1` [Compound 348, (E)-3-(4-((E)-2-(4-(Carboxymethoxy)phenyl)-1-(1H-indazol-5-yl)but-1-en-1-yl)phenyl)acrylic acid] were, in that order, < 40%, > 100 nM, “+ (+ = a single % value < 40%)” and < 7.00.
The like results for `CCCCCOc1cccc(/C(CC)=C(\c2ccc(/C=C/C(=O)O)cc2)c2ccc3[nH]ncc3c2)c1` [Compound 349, (E)-3-(4-((E)-1-(1H-Indazol-5-yl)-2-(3-(pentyloxy)phenyl)but-1-en-1-yl)phenyl)acrylic acid] were, in that order, ≥ 40%, ≤ 100 nM, “++ (++ = a single % value ≧ 40%)” and ≥ 7.00.
Regarding `CCCCCCOc1cccc(/C(CC)=C(\c2ccc(/C=C/C(=O)O)cc2)c2ccc3[nH]ncc3c2)c1` [Compound 350, (E)-3-(4-((E)-2-(3-(Hexyloxy)phenyl)-1-(1H-indazol-5-yl)but-1-en-1-yl)phenyl)acrylic acid], at ER-α in MCF-7 cells, the Emax is ≥ 40% and the DC50 was ≤ 100 nM. In the test on MCF-7 cells, the “MCF7 Viability Assay Max Response” value is recorded as “++ (++ = a single % value ≧ 40%)” and the negative-log IC50 (pIC50) is < 7.00.
The like results for `CC/C(=C(/c1ccc(/C=C/C(=O)O)cc1)c1ccc2[nH]ncc2c1)c1cccc(OCCCC(=O)O)c1` [Compound 351, 4-(3-((E)-1-(4-((E)-2-Carboxyvinyl)phenyl)-1-(1H-indazol-5-yl)but-1-en-2-yl)phenoxy)butanoic acid] were, in that order, ≥ 40%, > 100 nM, “+ (+ = a single % value < 40%)” and < 7.00.
The like results for `CC/C(=C(/c1ccc(/C=C/C(=O)O)cc1)c1ccc2[nH]ncc2c1)c1cccc(OCCCCC(=O)O)c1` [Compound 352, 5-(3-((E)-1-(4-((E)-2-Carboxyvinyl)phenyl)-1-(1H-indazol-5-yl)but-1-en-2-yl)phenoxy)pentanoic acid] were, in that order, ≥ 40%, > 100 nM, “+ (+ = a single % value < 40%)” and < 7.00.
In the case of `CC/C(=C(/c1ccc(/C=C/C(=O)O)cc1)c1ccc2[nH]ncc2c1)c1ccc(OCCCC(=O)O)cc1` [Compound 353, 4-(4-((E)-1-(4-((E)-2-Carboxyvinyl)phenyl)-1-(1H-indazol-5-yl)but-1-en-2-yl)phenoxy)butanoic acid], at ER-α in MCF-7 cells, the Emax was ≥ 40% and the DC50 was > 100 nM. In the test on MCF-7 cells, the “MCF7 Viability Assay Max Response” value was “+ (+ = a single % value < 40%)” and the pIC50 was < 7.00.
As for `CC/C(=C(/c1ccc(/C=C/C(=O)O)cc1)c1ccc2[nH]ncc2c1)c1ccc(OCCCCC(=O)O)cc1` [Compound 354, 5-(4-((E)-1-(4-((E)-2-Carboxyvinyl)phenyl)-1-(1H-indazol-5-yl)but-1-en-2-yl)phenoxy)pentanoic acid], at ER-α in MCF-7 cells, the Emax was ≥ 40% and the DC50 is > 100 nM. Further, in the test on MCF-7 cells, the “MCF7 Viability Assay Max Response” value is “+ (+ = a single % value < 40%)” and the pIC50 was < 7.00.
The like results for `CCCCCOc1ccc(/C(CC)=C(\c2ccc(/C=C/C(=O)O)cc2)c2ccc3[nH]ncc3c2)cc1` [Compound 356, (E)-3-(4-((E)-1-(1H-Indazol-5-yl)-2-(4-(pentyloxy)phenyl)but-1-en-1-yl)phenyl)acrylic acid] were, in that order, ≥ 40%, ≤ 100 nM, “++ (++ = a single % value ≧ 40%)” and < 7.00.
For `CCCCCCOc1ccc(/C(CC)=C(\c2ccc(/C=C/C(=O)O)cc2)c2ccc3[nH]ncc3c2)cc1` [Compound 357, (E)-3-(4-((E)-2-(4-(Hexyloxy)phenyl)-1-(1H-indazol-5-yl)but-1-en-1-yl)phenyl)acrylic acid] the same measures were ≥ 40%, > 100 nM, “++ (++ = a single % value ≧ 40%)” and < 7.00.
Consider `CC/C(=C(/c1ccc(/C=C/C(=O)O)cc1)c1ccc2[nH]ncc2c1)c1cccc(OCc2ccccc2)c1` [Compound 358, (E)-3-(4-((E)-2-(3-(Benzyloxy)phenyl)-1-(1H-indazol-5-yl)but-1-en-1-yl)phenyl)acrylic acid], for which, on ER-α in MCF-7 cells, the Emax was ≥ 40% and the DC50 was ≤ 100 nM. In the test on MCF-7 cells, the “MCF7 Viability Assay Max Response” value is “++ (++ = a single % value ≧ 40%)” and the pIC50 is ≥ 7.00.
`CC/C(=C(/c1ccc(/C=C/C(=O)O)cc1)c1ccc2[nH]ncc2c1)c1cccc(OCc2cccnc2)c1` [Compound 359, (E)-3-(4-((E)-1-(1H-Indazol-5-yl)-2-(3-(pyridin-3-ylmethoxy)phenyl)but-1-en-1-yl)phenyl)acrylic acid]: on ER-α in MCF-7 cells, the Emax is ≥ 40% and the DC50 is ≤ 100 nM. Moreover, in the test with MCF-7 cells, the “MCF7 Viability Assay Max Response” value was “++ (++ = a single % value ≧ 40%)” and the pIC50 was ≥ 7.00.
The like results for `CC/C(=C(/c1ccc(/C=C/C(=O)O)cc1)c1ccc2[nH]ncc2c1)c1ccc(OCCO)cc1` [Compound 360, (E)-3-(4-((E)-2-(4-(2-Hydroxyethoxy)phenyl)-1-(1H-indazol-5-yl)but-1-en-1-yl)phenyl)acrylic acid] were, in that order, ≥ 40%, > 100 nM, “++ (++ = a single % value ≧ 40%)” and < 7.00.
For `CC/C(=C(/c1ccc(/C=C/C(=O)O)cc1)c1ccc2[nH]ncc2c1)c1cccc(Oc2ccccn2)c1` [Compound 362, (E)-3-(4-((E)-1-(1H-Indazol-5-yl)-2-(3-(pyridin-2-yloxy)phenyl)but-1-en-1-yl)phenyl)acrylic acid] the same measures were ≥ 40%, ≤ 100 nM, “++ (++ = a single % value ≧ 40%)” and ≥ 7.00.
For `CC/C(=C(/c1ccc(/C=C/C(=O)O)cc1)c1ccc2[nH]ncc2c1)c1cccc(Oc2ncccn2)c1` [Compound 363, (E)-3-(4-((E)-1-(1H-Indazol-5-yl)-2-(3-(pyrimidin-2-yloxy)phenyl)but-1-en-1-yl)phenyl)acrylic acid] the same measures were ≥ 40%, ≤ 100 nM, “++ (++ = a single % value ≧ 40%)” and ≥ 7.00.

The record behind these values is US9399646B2 (Genentech, Inc., priority 2010, dated 2016).
